ChEMBL document CHEMBL5727507, “Substituted indole Mcl-1 inhibitors” (2020)

Biological target: Induced myeloid leukemia cell differentiation protein Mcl-1 (Homo sapiens, UniProt Q07820)
Experiment: Fluorescence Polarization Anisotropy Competition Assay: Compound affinity was measured using a fluorescence polarization anisotropy competition assay. Anisotropy measurements were carried out in 384-well, black, flat-bottom plates (Greiner Bio-one, Monroe, N.C., USA).

Induced myeloid leukemia cell differentiation protein Mcl-1, sequence (Q07820 whole entry): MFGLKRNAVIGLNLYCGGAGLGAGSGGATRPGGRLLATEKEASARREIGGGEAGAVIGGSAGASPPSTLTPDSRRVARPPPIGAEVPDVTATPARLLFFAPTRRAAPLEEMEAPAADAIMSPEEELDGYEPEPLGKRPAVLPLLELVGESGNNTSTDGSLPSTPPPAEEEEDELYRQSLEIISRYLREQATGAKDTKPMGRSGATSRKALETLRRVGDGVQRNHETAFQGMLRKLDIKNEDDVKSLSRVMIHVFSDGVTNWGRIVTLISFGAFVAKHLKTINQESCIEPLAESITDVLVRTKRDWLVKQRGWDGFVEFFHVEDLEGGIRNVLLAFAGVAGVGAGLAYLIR

Ki [nM] | Structure (SMILES)
< 50 | Cc1cc(OCCCc2c(C(=O)NCc3cc(C(=O)O)cc(Cl)n3)[nH]c3c(-c4c(C)nn(C)c4C)cccc23)cc(C)c1Cl
< 50 | Cc1cc(OCCCc2c3n(c4c(-c5c(C)nn(C)c5C)c(Cl)ccc24)[C@H](C)CN(c2ccc(C(=O)O)c4ncccc24)C3=O)cc(C)c1Cl
< 50 | Cc1cc(OCCCc2c(C(=O)N[C@@H]3CCC[C@@H](C(=O)O)C3)[nH]c3c(-c4c(C)nn(C)c4C)cccc23)cc(C)c1Cl
< 50 | Cc1cc(OCCCc2c(C(=O)N(C)c3ccc(C(=O)O)cc3)[nH]c3c(-c4c(C)nn(C)c4C)c(Cl)ccc23)cc(C)c1Cl
< 50 | Cc1cc(OCCCc2c3n(c4c(-c5c(C)nn(C)c5C)c(Cl)ccc24)CCCN(c2ccc(C(=O)O)c4ncccc24)C3=O)cc(C)c1Cl
< 50 | Cc1cc(OCCCc2c(C(=O)N[C@H]3CC[C@@H](C(=O)O)CC3)[nH]c3c(-c4c(C)nn(C)c4C)cccc23)cc(C)c1Cl
< 50 | Cc1cc(OCCCc2c3n(c4c(-c5c(C)nn(C)c5C)c(Cl)ccc24)CCCN(c2ccc(C(=O)O)c4c2ccn4C)C3=O)cc(C)c1Cl
< 50 | Cc1cc(OCCCc2c3n(c4c(-c5c(C)nn(C)c5C)cccc24)CCCN(c2ccnc4c(C(=O)O)cccc24)C3=O)cc(C)c1Cl
< 50 | Cc1cc(OCCCc2c(C(=O)N3CCN(c4ccc(C(=O)O)cc4)CC3)n(CCN3CCOCC3)c3c(-c4c(C)nn(C)c4C)c(Cl)ccc23)cc(C)c1Cl
